Test: excess molar enthalpy (molar enthalpy of mixing); xn = mol fraction of the nth substance listed
Details: 101 kPa, Liquid, Calvet calorimetry

[Li] [lithium] + [Ag]
Details | excess molar enthalpy [kcal/mol]
873 K, x1 = 0.5664 | -2.79
873 K, x1 = 0.5985 | -2.69
873 K, x1 = 0.6338 | -2.57
873 K, x1 = 0.6719 | -2.4
873 K, x1 = 0.7007 | -2.25
873 K, x1 = 0.7274 | -2.09
873 K, x1 = 0.7617 | -1.87
873 K, x1 = 0.7867 | -1.7
873 K, x1 = 0.8408 | -1.22
873 K, x1 = 0.8972 | -0.767
873 K, x1 = 0.932 | -0.474
873 K, x1 = 0.9771 | -0.0813
1253 K, x1 = 0.1002 | -0.73
1253 K, x1 = 0.1043 | -0.754
1253 K, x1 = 0.1097 | -0.799
1253 K, x1 = 0.1152 | -0.853
1253 K, x1 = 0.1205 | -0.897
1253 K, x1 = 0.1287 | -0.956
1253 K, x1 = 0.1355 | -1.01
1253 K, x1 = 0.1461 | -1.1
1253 K, x1 = 0.1583 | -1.21
1253 K, x1 = 0.1698 | -1.35
1253 K, x1 = 0.1884 | -1.51
1253 K, x1 = 0.1995 | -1.6
1253 K, x1 = 0.2187 | -1.73
1253 K, x1 = 0.264 | -1.85
1253 K, x1 = 0.2711 | -1.88
1253 K, x1 = 0.2851 | -1.95
1253 K, x1 = 0.2976 | -2.02
1253 K, x1 = 0.3124 | -2.12
1253 K, x1 = 0.3281 | -2.2
1253 K, x1 = 0.3503 | -2.29
1253 K, x1 = 0.3774 | -2.42
1253 K, x1 = 0.4086 | -2.52
1253 K, x1 = 0.4371 | -2.61
1253 K, x1 = 0.4847 | -2.72
1253 K, x1 = 0.5245 | -2.75
